# Results taken from PMC8605905 (Oxidative Medicine and Cellular Longevity, 2021).
# “Also recorded” adds a separate entry of the source. Read-outs that look alike come from different tables or passages of the source.
# Legend:
# [1] = target: T1, Aβ and ΔK280 tauRD aggregates (Homo sapiens, UniProt P05067+P10636, DEL597-597); assay: TEM examination of Aβ and tau aggregates; conditions: 10 μM
# T1 construct: To investigate Aβ and ΔK280 tauRD aggregates
# Description: To investigate Aβ and ΔK280 tauRD aggregates, samples of the fibrils formed with and without treatment of a tested compound were placed on a 200-mesh copper (holey-carbon) grid and visualized using a JEM-1230 transmission electron microscope (TEM) (JEOL, Tokyo, Japan) at an accelerating voltage of 100 kV.
# Aβ-GFP SH-SY5Y cells = assay: High content analysis of neurite outgrowth in Aβ-GFP cells; format: cell-based, Human; conditions: 5 μM
# Experimental: On day 1, Aβ-GFP or ∆K280 tauRD-DsRed SH-SY5Y cells were plated into 24-well plates (6 × 10^4/well) followed by addition of retinoic acid. On day 2, cells were treated with coumarin-chalcone derivatives (5 or 10 μM) and with doxycycline (5 or 2 μg/ml) to induce the expression of Aβ-GFP or ∆K280 tauRD-DsRed. On day 8, 4% paraformaldehyde, 0.1% Triton X-100, and 3% BSA were used to fix, permeabilize, and block cells, respectively. Subsequently, the cells were stained with TUBB3 (neuronal class III β-tubulin) primary antibody (1 : 1000; Covance, Princeton, NJ, USA) at 4°C overnight. Goat anti-rabbit Alexa Fluor 555 secondary antibody (1 : 1000; Thermo Fisher Scientific) was then added, followed by a 3 h incubation at room temperature. Following staining nuclei with 4′,-6-diamidino-2-phenylindole (DAPI) (0.1 μg/ml; Sigma-Aldrich), the neurons were imaged by using the HCA system and analysed by using the Neurite Outgrowth Application Module (MetaXpress; Molecular Devices).
# To monitor the cAMP-mediated signal transduction pathway, CRE-GFP 293 cells in 6-well plates (1 × 10^6/well) were pretreated with kinase inhibitor H-89 (LC Laboratories, Woburn, MA, USA), KN-62 (Cayman Chemical, Ann Arbor, MI, USA), U0126 (LC Laboratories), or wortmannin (LC Laboratories) (10 μM) for 4 h before forskolin or LM-021 (10 μM) addition for 5 h. GFP fluorescence/protein and total/phosphorylated PKA, CaMKII, ERK, PI3K, and CREB levels were examined. In addition, Aβ-GFP or ∆K280 tauRD-DsRed SH-SY5Y cells were treated with retinoic acid (10 μM) on day 1, followed by the addition of LM-021 (5 or 10 μM) and doxycycline (5 or 2 μg/ml) on day 2, as described. Kinase inhibitors (10 μM) were added on day 6. On day 8, the cells were collected for protein expression analysis of BDNF, BCL2 (BCL2 apoptosis regulator), and BAX (BCL2 associated X, apoptosis regulator), and total/phosphorylated PKA, CaMKII, ERK, PI3K, and CREB. Also, cells were stained with DAPI and assessed for neurite outgrowth as described above.
# [2] = test system: ∆K280 tauRD-DsRed SH-SY5Y cells; assay: High content analysis of neurite outgrowth in ΔK280 tauRD-DsRed cells; format: cell-based, Human; conditions: 10 μM
# [3] = Mouse pharmacokinetics study and brain/plasma ratio; format: in vivo, Male Crl:CD-1 (ICR) mice; conditions: for half-life: read-out: t1/2 (elimination half-life) (converted); for AUC(0-inf): iv, 5 mg/kg
# Experimental: Male Crl:CD-1 (ICR) mice (8 weeks old) weighing 25–30 g were housed in cages with ad libitum access to food and drinking water on a 12 : 12 h light-dark cycle. All animal experiments were performed in accordance with the guidelines approved by the Rosetta Pharmamate Institutional Animal Care and Use Committee (IACUC Approval No: AF20015). Mice were randomly divided into 7 subgroups (6 time points and 1 vehicle control; n = 3 per subgroup). LM-021 (in 5% DMSO and 19% hydroxypropyl-β-cyclodextrin) was administered intravenously (IV) at 5 mg/kg dose in volume of 10 ml/kg. Mice were euthanized in a CO2 chamber at 0.25, 0.5, 1, 2, 4, or 8 h postdose. Whole blood was collected via facial veins in heparin-coated polypropylene tubes, and plasma was obtained by centrifugation (1000 × g for 15 min at 4°C) within 60 min of collection. After cerebral vasculature perfusion through the left ventricle with normal saline for 5 min, the whole brain was quickly excised and weighed. Plasma and brain samples were rapidly frozen and stored at −70°C until analysis (see supplementary materials).
# Pharmacokinetic (PK) parameters, including plasma concentration following IV dose (C0), elimination half-life (T1/2), mean residence time (MRT), and area under the concentration- (AUC-) time curve from time 0 extrapolated to infinity (AUC(0-∞)), were estimated using noncompartmental pharmacokinetic parameter analysis with Phoenix WinNonlin software (version 8.2, Pharsight Corporation, Mountain View, CA, USA). In addition, the ratio of brain/plasma was calculated from the area under the curve for brain and plasma concentrations.
# Supplementary Description
# Preparation and analysis of mouse plasma and brain homogenate samples. A solvent-based protein precipitation procedure was used for analyzing plasma and brain homogenate samples. A 20-μl aliquot of each plasma sample was mixed with 60 μl of acetonitrile. For brain samples, collected brains were homogenized in 3 volumes of methanol, and then 50 μl of brain homogenate was mixed with 50 μl of acetonitrile.
# After vortexing and centrifugation (20,000 × g for 5 min), the extracted supernatants were collected. Liquid chromatography – tandem mass spectrometry (LC-MS/MS) analyses was performed using an Agilent 1200 (Agilent Technologies, Palo Alto, CA, USA) coupled to a QTrap 5500 triple-quadrupole mass spectrometer (AB SCIEX, Foster City, CA, USA). Chromatographic separation was performed on an Eclipse Plus C18 column (3.5 µm; 4.6 × 50 mm; Agilent Technologies) with the mobile phase performed at a constant flow rate of 1.0 ml/min using a binary solvent system: solvent A, 5 mM ammonium acetate; solvent B, acetonitrile. The transition (precursor ion to daughter ion) monitored was m/z 336.2 → 321.0 for LM-021. Multiple reaction monitoring (MRM) data were acquired, and the chromatograms were integrated using Analyst 1.6.3 software (Applied Biosystems). A weighted (1/x) linear regression was used to generate the calibration curves from standards and to calculate the sample […]
# concentrations. […]
# [4] = Crl:CD-1 (ICR), mouse, plasma, ICR male mice, IV 5 mg/kg
compound,measurement,setting,value
"CN(C)c1ccc(/C=C/C(=O)c2c(O)c3ccccc3oc2=O)cc1 [LM-021, (E)-3-(3-(4-(dimethylamino)phenyl)acryloyl)-4-hydroxy-2H-chromen-2-one]",Aβ and tau aggregate structures by TEM,[1],reduced amyloid aggregates
same,"Neurite length, processes, and branches",Aβ-GFP SH-SY5Y cells,successfully ameliorated; also recorded: salvaged
same,Neurite length and branches,[2],successfully ameliorated; also recorded: ameliorated the defects
same,half-life,"[3]; Crl:CD-1 (ICR), mouse, brain, ICR male mice, IV 5 mg/kg",2.17 ± 0.67 h
same,C0,[3]; [4],20400 ± 9480 ng/mL
same,MRT,[3]; [4],3.54 ± 0.93 h
same,clearance,[3]; [4],1.85 ± 0.12 mL/min/kg
same,Vd,"[3]; Crl:CD-1 (ICR), mouse, plasma, ICR male mice, IV 5 mg/kg, read-out: Vss",0.39 ± 0.08 L/kg
same,half-life,[3]; [4],2.54 ± 0.79 h
same,Brain/plasma ratio,"[3]; calculated by the AUC(0-∞) ratios, ICR male mice, IV 5 mg/kg",0.053
same,Kp,"[3]; male, Crl:CD-1 (ICR), mouse, brain and plasma, mice, IV 5 mg/kg",0.053
same,AUC(0-inf),"[3]; male, Crl:CD-1 (ICR), mouse, brain, brain (tissue density assumed 1 g/ml), ICR male mice, IV 5 mg/kg, read-out: AUC(0-∞)",2380 ± 34 ng·h/mL
same,AUC(0-inf),"[3]; male, Crl:CD-1 (ICR), mouse, brain, brain, mice, intravenous bolus 5 mg/kg, read-out: Systemic exposure (AUC0-∞)",2380 ± 30 ng·h/mL
same,AUC(0-inf),"[3]; male, Crl:CD-1 (ICR), mouse, plasma, plasma, ICR male mice, IV 5 mg/kg, read-out: AUC(0-∞)",45300 ± 2830 ng·h/mL
same,AUC(0-inf),"[3]; male, Crl:CD-1 (ICR), mouse, plasma, plasma, mice, intravenous bolus 5 mg/kg, read-out: Systemic exposure (AUC0-∞)",45300 ± 2830 ng·h/mL
same,Plasma clearance as share of cardiac output blood flow of mice (400 ml/min/kg),"[3]; mice, IV 5 mg/kg",about 0.5%
